{"source": "patent US20200338028A1", "about": "“BENZENESULFONAMIDE DERIVATIVES AND METHOD FOR MODULATING LIPID RAFT” (Gongwin Biopharm Co., Ltd., priority 2017, published 2020)", "key": {"DU-145 cells": {"tested_on": "DU-145 cells", "test": "lipid raft isolation (sucrose gradient) and Western blot of raft-associated kinases", "format": "cell-based, human", "settings": "DU-145, 6 mM p-TSA, 2 h", "from_the_text": "(§1) Lipid rafts are plasma membranes of cells containing glycosphingolipids and a number of receptors arranged in specific glycolipoprotein microdomains which serve as organizing centers to gather signaling molecules, membrane fluid and protein trafficking for a variety of cellular processes. […] To examine the effect of lipid raft on p-TSA action, lipid rafts were isolated from whole cells by sucrose gradient fractionation with subsequent analysis of several serine/threonine kinases localization in raft fractions by immunoblotting. The detailed method for lipid raft isolation was performed as follows. Lipid rafts were isolated using lysis conditions and centrifugation on discontinuous sucrose gradients. Briefly, after the treatment of cells with or without p-TSA, the cells were washed with ice-cold PBS and lysed for 30 min on ice with 1% Triton X-100 in TNEV buffer (10 mM Tris-HCl, pH 7.5, 150 mM NaCl, 5 mM EDTA, 1 mM Na3VO4 and 1 mM PMSF). Cells were homogenized with 15 strokes with a Biovision tissue homogenizer. After centrifuging at 200 g for 8 min, the nuclei and cellular debris were pelleted and 400 μl supernatant was mixed with 400 μl 85% (w/v) sucrose in TNEV buffer, and then transferred to the bottom of a Beckman 13×51 mm centrifuge tube. The diluted lysate was overlaid with 2.4 ml 35% (w/v) sucrose in TNEV buffer and finally 1.4 ml 5% (w/v) sucrose in TNEV buffer. The samples were centrifuged in an SW55 rotor at 200,000 g for 18 h at 4° C. in a Beckman Optima L100K ultracentrifuge (Beckman Instruments, Palo Alto, Calif., United States). Then, fractions in each volume of 350 μl were collected from the top gradient. 15 μl of each fraction was subjected to Western blot analysis to determine the location of target proteins in the discontinuous sucrose gradient."}, "PC-3 cells": {"tested_on": "PC-3 cells", "test": "lipid raft isolation (sucrose gradient) and Western blot of raft-associated kinases", "format": "cell-based, human", "settings": "PC-3, 6 mM p-TSA, 2 h", "from_the_text": "as §1"}}, "data": [{"smiles": "Cc1ccc(S(N)(=O)=O)cc1", "note": "[p-TSA, para-toluenesulfonamide]", "values": [{"measurement": "expressions of raft-associated total and phosphorylated kinases (Akt, mTOR, p70S6K)", "setting": "DU-145 cells", "value": "decreased expressions"}, {"measurement": "raft-associated phosphorylated p70S6K expression", "setting": "DU-145 cells", "value": "completely abolished"}, {"measurement": "expressions of raft-associated total and phosphorylated kinases (Akt, mTOR, p70S6K)", "setting": "PC-3 cells", "value": "decreased expressions"}, {"measurement": "raft-associated phosphorylated p70S6K expression", "setting": "PC-3 cells", "value": "completely abolished"}]}]}
